In ChEMBL document CHEMBL5370623, “Discovery of Quinazoline-2,4(1H,3H)-dione Derivatives Containing a Piperizinone Moiety as Potent PARP-1/2 Inhibitors─Design, Synthesis, In Vivo Antitumor Activity, and X-ray Crystal Structure Analysis” (J Med Chem, 2023):
Values after ≈ are worked out from the molar mass of the structure shown. Active and inactive are the calls of the source. The calls are words filed in the database; no cut-off is given here.

Assays:
[1] = molecular target: T1, Poly [ADP-ribose] polymerase 1 (Homo sapiens, UniProt P09874); assay: Inhibition of human recombinant PARP1 expressed in Escherichia coli BL21(DE3) incubated for 1 hr by ELISA assay
[2] = molecular target: T2, Poly [ADP-ribose] polymerase 2 (Homo sapiens, UniProt Q9UGN5); assay: Inhibition of human recombinant PARP2 expressed in Escherichia coli BL21(DE3) incubated for 1 hr by ELISA assay
[3] = tested on: MX1; assay: Cytotoxicity against human MX1 cells […] assessed as inhibition of cell growth measured after 72 hrs by MTT assay; assay type: functional, cell-based; conditions: MX1, 72 h
[4] = tested on: MX1; assay: Potentiation factor, ratio of IC50 for cytotoxicity against human MX1 cells to IC50 for cytotoxicity against human MX1 cells in presence of temozolomide; assay type: functional
[5] = molecular target: T1, Poly [ADP-ribose] polymerase 1; assay: Inhibition of human PARP1 in human MX1 cells assessed as enzyme-DNA trapping activity at 1 uM incubated for 24 hrs by Western blot analysis; assay type: cell-based
[6] = Tmax in BALB/c mouse at 25 mg/kg, po measured upto 24 hrs by LC-MS/MS analysis; assay type: ADME, organism-based; conditions: in vivo
[7] = Aqueous solubility of the compound; assay type: physicochemical
[8] = Half life in BALB/c mouse at 25 mg/kg, po measured upto 24 hrs by LC-MS/MS analysis; assay type: ADME, organism-based; conditions: in vivo
[9] = Cmax in BALB/c mouse at 25 mg/kg, po measured upto 24 hrs by LC-MS/MS analysis; assay type: ADME, organism-based; design: time < 24 hrs, dose 25 mg/kg, route po; conditions: in vivo
[10] = AUC (0 to t) in BALB/c mouse at 25 mg/kg, po measured upto 24 hrs by LC-MS/MS analysis; assay type: ADME, organism-based; design: time < 24 hrs, dose 25 mg/kg, route po; conditions: in vivo
[11] = AUC (0 to infinity) in BALB/c mouse at 25 mg/kg, po measured upto 24 hrs by LC-MS/MS analysis; assay type: ADME, organism-based; design: dose 25 mg/kg, time < 24 hrs, route po; conditions: in vivo
[12] = MRT (0 to t) in BALB/c mouse at 25 mg/kg, po measured upto 24 hrs by LC-MS/MS analysis; assay type: ADME, organism-based; conditions: in vivo
[13] = MRT (0 to infinity) in BALB/c mouse at 25 mg/kg, po measured upto 24 hrs by LC-MS/MS analysis; assay type: ADME, organism-based; conditions: in vivo
[14] = molecular target: T2, Poly [ADP-ribose] polymerase 2; assay: Inhibition of PARP2 (unknown origin)
[15] = molecular target: Protein mono-ADP-ribosyltransferase PARP10 (Homo sapiens) (UniProt Q53GL7); assay: Inhibition of human N-terminal FLAG-tagged/C-terminal Strep-tagged recombinant PARP10 (805 to 1025 residues) expressed in Sf9 cells at 1 uM relative to control
[16] = molecular target: Protein mono-ADP-ribosyltransferase PARP11 (Homo sapiens) (UniProt Q9NR21); assay: Inhibition of human N-terminal FLAG-tagged/C-terminal His-tagged recombinant PARP11 (8 to 338 (end) residues) expressed in Sf9 cells at 1 uM relative to control
[17] = molecular target: Protein mono-ADP-ribosyltransferase PARP12 (Homo sapiens) (UniProt Q9H0J9); assay: Inhibition of human N-terminal FLAG/His-tagged recombinant PARP12 (500 to 701(end) residues) expressed in Sf9 cells at 1 uM relative to control
[18] = molecular target: Protein mono-ADP-ribosyltransferase PARP14 (Homo sapiens) (UniProt Q460N5); assay: Inhibition of human N-terminal GST/His-tagged recombinant PARP14 (1470 to 1801(end) residues) expressed in Sf9 cells at 1 uM relative to control
[19] = molecular target: Protein mono-ADP-ribosyltransferase PARP15 (Homo sapiens) (UniProt Q460N3); assay: Inhibition of human N-terminal GST-tagged recombinant PARP15 (221 to 444(end) residues) expressed in Escherichia coli at 1 uM relative to control
[20] = molecular target: Poly [ADP-ribose] polymerase tankyrase-1 (Homo sapiens) (UniProt O95271); assay: Inhibition of human recombinant N-terminal GST-tagged TNKS1 (1001 to 1327(end) residues) expressed in Sf9 cells at 1 uM relative to control
[21] = molecular target: Poly [ADP-ribose] polymerase tankyrase-2 (Homo sapiens) (UniProt Q9H2K2); assay: Inhibition of human recombinant N-terminal GST-tagged TNKS2 (849 to 1166(end) residues) expressed in Sf9 cells at 1 uM relative to control
[22] = molecular target: Protein mono-ADP-ribosyltransferase TIPARP (Homo sapiens) (UniProt Q7Z3E1); assay: Inhibition of PARP7 in human THP-1 cells assessed as induction of TBK1 phosphorylation at 10 uM incubated for 24 hrs by immunoblotting analysis; assay type: cell-based
[23] = tested on: THP-1; assay: Inhibition of PARP1/2 mediated DNA repair pathway in human THP-1 cells assessed as induction of gamma-H2AX phosphorylation at 10 uM incubated for 24 hrs by immunoblotting analysis; assay type: cell-based
[24] = species: Felis catus; assay: Binding affinity to cat PARP1 assessed as dissociative half-life by SPR assay
[25] = species: Felis catus; assay: Binding affinity to cat PARP2 assessed as dissociative half-life by SPR assay
[26] = tested on: MC-38; assay: Antitumor activity against mouse MC38 cells implanted in C57BL/6 mouse assessed as increase in CD8+T cells in tumor at 10 mg/kg, po qd measured after 17 days by flow cytometry analysis; assay type: functional, organism-based; conditions: time 17.0 day
[27] = tested on: MC-38; assay: Antitumor activity against mouse MC38 cells implanted in C57BL/6 mouse assessed as tumor growth inhibition at 50 mg/kg, po qd measured after 17 days; assay type: functional; conditions: time 17 day
[28] = tested on: MC-38; assay: Antitumor activity against mouse MC38 cells implanted in C57BL/6 mouse assessed as increase in CD8+T cells in tumor at 50 mg/kg, po qd measured after 17 days by flow cytometry analysis; assay type: functional, organism-based; conditions: time 17.0 day
[29] = molecular target: T1, Poly [ADP-ribose] polymerase 1
Description: Inhibition of PARP1 (unknown origin)

T1 sequence (P09874 whole entry): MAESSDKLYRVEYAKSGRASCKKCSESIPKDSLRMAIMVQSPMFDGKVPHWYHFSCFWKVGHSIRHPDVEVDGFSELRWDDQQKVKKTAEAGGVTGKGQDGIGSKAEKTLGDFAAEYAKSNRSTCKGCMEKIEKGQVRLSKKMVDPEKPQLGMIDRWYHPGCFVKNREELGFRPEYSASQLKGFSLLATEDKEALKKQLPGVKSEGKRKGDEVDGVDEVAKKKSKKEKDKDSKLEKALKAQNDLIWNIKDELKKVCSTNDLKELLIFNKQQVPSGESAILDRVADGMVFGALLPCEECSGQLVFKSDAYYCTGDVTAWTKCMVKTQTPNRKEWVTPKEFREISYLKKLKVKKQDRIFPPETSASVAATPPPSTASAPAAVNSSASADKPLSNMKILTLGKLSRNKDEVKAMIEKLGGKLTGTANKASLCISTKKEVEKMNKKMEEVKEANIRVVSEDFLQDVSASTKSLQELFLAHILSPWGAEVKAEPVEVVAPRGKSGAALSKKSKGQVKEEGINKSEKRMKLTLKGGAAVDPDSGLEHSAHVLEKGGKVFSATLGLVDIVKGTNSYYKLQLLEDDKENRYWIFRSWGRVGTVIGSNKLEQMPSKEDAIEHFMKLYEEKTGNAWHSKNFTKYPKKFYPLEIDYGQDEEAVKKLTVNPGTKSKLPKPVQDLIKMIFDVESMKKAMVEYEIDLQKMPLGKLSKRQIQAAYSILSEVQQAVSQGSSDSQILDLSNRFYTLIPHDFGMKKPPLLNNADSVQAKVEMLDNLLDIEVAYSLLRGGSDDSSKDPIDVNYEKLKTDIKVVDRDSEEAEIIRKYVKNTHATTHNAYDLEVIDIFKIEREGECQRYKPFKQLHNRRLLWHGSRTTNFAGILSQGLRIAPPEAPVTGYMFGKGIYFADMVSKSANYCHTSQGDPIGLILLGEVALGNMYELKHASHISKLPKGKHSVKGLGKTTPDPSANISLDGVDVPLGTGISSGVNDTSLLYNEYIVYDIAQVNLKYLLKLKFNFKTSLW
T2 sequence (Q9UGN5 whole entry): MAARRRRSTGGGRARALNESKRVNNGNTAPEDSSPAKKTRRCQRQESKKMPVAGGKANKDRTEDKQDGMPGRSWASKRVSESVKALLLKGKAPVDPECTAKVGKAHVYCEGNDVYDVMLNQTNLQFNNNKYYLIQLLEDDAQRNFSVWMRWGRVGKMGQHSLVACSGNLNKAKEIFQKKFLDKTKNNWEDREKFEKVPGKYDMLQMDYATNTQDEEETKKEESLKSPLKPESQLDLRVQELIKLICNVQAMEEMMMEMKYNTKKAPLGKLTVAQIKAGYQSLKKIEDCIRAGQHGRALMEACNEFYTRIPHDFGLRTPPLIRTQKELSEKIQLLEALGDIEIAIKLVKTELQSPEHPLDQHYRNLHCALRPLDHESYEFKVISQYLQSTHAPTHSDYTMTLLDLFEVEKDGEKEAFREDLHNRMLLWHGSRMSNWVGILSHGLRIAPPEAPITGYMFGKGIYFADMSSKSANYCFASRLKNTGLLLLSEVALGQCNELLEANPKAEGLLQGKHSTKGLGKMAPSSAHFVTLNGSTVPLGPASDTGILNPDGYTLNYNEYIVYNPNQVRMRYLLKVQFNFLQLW
Protein mono-ADP-ribosyltransferase TIPARP (Homo sapiens), sequence (Q7Z3E1 whole entry): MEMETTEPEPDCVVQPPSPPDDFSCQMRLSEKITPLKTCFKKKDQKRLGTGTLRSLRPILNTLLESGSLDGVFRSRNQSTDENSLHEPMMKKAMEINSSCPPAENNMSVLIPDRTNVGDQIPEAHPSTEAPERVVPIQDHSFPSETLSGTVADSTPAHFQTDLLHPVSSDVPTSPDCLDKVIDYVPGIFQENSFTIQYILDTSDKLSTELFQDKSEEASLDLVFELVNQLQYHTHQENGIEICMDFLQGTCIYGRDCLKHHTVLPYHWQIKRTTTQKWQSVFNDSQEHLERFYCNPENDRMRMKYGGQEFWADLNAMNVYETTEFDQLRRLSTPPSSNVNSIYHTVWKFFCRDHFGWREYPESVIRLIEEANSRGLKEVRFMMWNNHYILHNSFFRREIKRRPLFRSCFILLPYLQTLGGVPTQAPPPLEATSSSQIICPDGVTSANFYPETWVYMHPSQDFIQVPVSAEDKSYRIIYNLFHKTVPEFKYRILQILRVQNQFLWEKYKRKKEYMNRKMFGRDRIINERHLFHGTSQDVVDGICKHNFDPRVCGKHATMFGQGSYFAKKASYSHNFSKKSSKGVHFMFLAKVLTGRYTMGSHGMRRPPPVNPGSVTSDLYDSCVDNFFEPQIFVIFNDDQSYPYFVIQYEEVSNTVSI
Protein mono-ADP-ribosyltransferase PARP11 (Homo sapiens), sequence (Q9NR21 whole entry): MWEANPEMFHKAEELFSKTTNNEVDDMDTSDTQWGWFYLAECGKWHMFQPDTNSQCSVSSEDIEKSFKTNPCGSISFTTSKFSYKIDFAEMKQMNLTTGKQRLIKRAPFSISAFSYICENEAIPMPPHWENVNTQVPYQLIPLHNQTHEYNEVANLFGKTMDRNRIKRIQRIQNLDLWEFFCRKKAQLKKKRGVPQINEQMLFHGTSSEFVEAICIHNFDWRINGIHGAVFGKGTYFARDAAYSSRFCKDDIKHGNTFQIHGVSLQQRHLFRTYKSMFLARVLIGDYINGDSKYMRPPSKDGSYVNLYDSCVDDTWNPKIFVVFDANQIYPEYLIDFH
Protein mono-ADP-ribosyltransferase PARP10 (Homo sapiens), sequence (Q53GL7 whole entry, the tested form may be a part): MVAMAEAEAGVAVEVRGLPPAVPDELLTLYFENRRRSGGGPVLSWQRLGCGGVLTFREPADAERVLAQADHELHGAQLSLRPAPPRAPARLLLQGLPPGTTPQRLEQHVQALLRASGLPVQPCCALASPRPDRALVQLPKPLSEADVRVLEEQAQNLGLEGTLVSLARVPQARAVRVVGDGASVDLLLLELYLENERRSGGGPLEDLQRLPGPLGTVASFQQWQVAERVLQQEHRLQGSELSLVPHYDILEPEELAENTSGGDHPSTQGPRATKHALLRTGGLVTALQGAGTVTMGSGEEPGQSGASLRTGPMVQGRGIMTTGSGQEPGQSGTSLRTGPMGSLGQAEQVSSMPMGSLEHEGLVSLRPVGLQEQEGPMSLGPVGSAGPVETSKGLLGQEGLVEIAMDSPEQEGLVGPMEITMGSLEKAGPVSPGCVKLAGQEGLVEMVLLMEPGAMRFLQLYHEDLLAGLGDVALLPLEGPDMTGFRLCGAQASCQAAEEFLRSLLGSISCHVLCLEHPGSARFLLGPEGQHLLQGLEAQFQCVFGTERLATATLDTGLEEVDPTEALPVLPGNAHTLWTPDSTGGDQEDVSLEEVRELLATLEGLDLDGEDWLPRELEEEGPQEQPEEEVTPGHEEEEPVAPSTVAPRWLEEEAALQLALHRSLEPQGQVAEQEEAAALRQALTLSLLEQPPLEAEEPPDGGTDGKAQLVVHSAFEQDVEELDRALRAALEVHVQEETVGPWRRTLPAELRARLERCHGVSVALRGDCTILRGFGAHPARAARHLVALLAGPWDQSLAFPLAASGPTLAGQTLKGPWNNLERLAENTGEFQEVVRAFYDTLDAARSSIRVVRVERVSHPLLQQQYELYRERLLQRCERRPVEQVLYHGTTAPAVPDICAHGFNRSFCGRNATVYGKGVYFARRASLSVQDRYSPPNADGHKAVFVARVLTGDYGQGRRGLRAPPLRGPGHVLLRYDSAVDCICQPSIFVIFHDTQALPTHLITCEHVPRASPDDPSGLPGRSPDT
Poly [ADP-ribose] polymerase tankyrase-1 (Homo sapiens), sequence (O95271 whole entry): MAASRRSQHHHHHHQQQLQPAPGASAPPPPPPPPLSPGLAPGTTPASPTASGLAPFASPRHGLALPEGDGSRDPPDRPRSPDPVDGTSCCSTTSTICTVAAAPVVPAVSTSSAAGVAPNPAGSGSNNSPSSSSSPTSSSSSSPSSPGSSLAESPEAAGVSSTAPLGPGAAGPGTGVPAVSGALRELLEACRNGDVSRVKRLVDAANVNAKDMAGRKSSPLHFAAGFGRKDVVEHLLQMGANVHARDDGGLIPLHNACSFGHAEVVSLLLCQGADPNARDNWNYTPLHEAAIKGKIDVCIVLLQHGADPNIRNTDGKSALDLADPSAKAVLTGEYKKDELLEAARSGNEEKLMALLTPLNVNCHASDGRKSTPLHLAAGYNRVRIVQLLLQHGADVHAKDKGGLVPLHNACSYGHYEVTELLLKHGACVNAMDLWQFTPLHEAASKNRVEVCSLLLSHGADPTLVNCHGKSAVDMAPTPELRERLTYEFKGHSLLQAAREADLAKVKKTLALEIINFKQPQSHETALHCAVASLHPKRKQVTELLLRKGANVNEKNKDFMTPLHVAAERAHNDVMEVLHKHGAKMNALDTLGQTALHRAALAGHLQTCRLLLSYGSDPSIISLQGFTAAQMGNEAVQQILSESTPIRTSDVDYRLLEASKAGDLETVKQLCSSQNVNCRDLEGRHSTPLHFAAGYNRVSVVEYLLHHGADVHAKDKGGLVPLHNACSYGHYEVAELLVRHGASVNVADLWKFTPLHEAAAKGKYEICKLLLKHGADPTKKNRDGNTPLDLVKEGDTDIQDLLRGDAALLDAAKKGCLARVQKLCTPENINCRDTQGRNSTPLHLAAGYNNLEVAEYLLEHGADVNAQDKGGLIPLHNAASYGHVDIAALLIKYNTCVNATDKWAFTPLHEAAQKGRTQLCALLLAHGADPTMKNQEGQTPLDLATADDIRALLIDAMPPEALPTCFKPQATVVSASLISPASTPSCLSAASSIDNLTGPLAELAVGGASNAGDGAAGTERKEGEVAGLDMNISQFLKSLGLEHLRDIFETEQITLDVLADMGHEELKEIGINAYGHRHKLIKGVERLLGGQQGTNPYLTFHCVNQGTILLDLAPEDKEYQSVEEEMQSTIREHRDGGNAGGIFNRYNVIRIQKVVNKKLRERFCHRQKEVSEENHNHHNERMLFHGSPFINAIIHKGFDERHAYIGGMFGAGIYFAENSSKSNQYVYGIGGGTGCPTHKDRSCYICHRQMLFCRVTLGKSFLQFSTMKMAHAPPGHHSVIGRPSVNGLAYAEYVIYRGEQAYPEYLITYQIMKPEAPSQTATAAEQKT

SMILES	IC50 [1] [nM]	IC50 [2] [nM]	PARP1-DNA trapping activity [5]	IC50 [3] [nM]	PF50 [4]	also measured
O=C1CN(C(=O)c2cc(Cn3c(=O)[nH]c(=O)c4ccccc43)ccc2F)CCN1Cc1ccccc1	2.54	0.77	Active	3.12	>10	–
CCC(CC)N1CCN(C(=O)c2cc(Cn3c(=O)[nH]c(=O)c4ccccc43)ccc2F)CC1=O [listing 1 of 2 here]	3.86	0.79	–	0.65	>10	Tmax [6]: 4.8 min; solubility [7]: 30.4 µg/mL (≈ 65.1 µM); half-life [8]: 30.6 min; Cmax [9]: 515 ng/mL; AUC(0-t) at 24 h [10]: 316 ng·h/mL; AUC(0-inf) [11]: 340 ng·h/mL; MRT last at 24 h [12]: 32.4 min; MRT inf [13]: 42 min
CC(C)=CCN1CCN(C(=O)c2cc(Cn3c(=O)[nH]c(=O)c4ccccc43)ccc2F)CC1=O	9.85	2.35	Active	6.54	>10	–
COCCN1CCN(C(=O)c2cc(Cn3c(=O)[nH]c(=O)c4ccccc43)ccc2F)CC1=O	4.86	0.83	Active	61.3	–	–
C[C@]12CCCN1CC1=NNC(=O)c3cc(F)cc4[nH]c2c1c34 [PAMIPARIB]	–	–	–	–	–	IC50 [14]: 0.3 nM
CCC(CC)N1CCN(C(=O)c2cc(Cn3c(=O)[nH]c(=O)c4ccccc43)ccc2F)CC1=O [listing 2 of 2 here]	–	–	Active	–	–	inhibition [15]: inactive; inhibition [16]: inactive; inhibition [17]: inactive; inhibition [18]: inactive; inhibition [19]: 45%; inhibition [20]: inactive; inhibition [21]: inactive; inhibition [22]: Active; inhibition [23]: Active; T1/2 [24]: 142 min; T1/2 [25]: 140 min; Activity [26]: Active
O=C(c1cc(Cc2n[nH]c(=O)c3ccccc23)ccc1F)N1CCN(C(=O)C2CC2)CC1 [OLAPARIB]	–	–	–	8.26	>10	T1/2 [24]: 51.1 min; T1/2 [25]: 17.4 min; TGI [27]: 57.9%; Activity [28]: inactive
CCCCCN1CCN(C(=O)c2cc(Cn3c(=O)[nH]c(=O)c4ccccc43)ccc2F)CC1=O	2.71	0.94	Active	331	>10	–
O=C(c1cc(Cn2c(=O)[nH]c(=O)c3ccccc32)ccc1F)N1CCN(c2ccccc2)C(=O)C1	1.02	0.62	Active	4.88	>10	–
O=C(c1cc(Cc2n[nH]c(=O)c3ccccc23)ccc1F)N1CCn2c(nnc2-c2ccc(Br)o2)C1	–	–	–	–	–	IC50 [29]: < 0.001 nM
CC(C1CCCC1)N1CCN(C(=O)c2cc(Cn3c(=O)[nH]c(=O)c4ccccc43)ccc2F)CC1=O (stereo unspecified)	3.67	0.22	Active	1.18	>10	–
CC(C)C(C)N1CCN(C(=O)c2cc(Cn3c(=O)[nH]c(=O)c4ccccc43)ccc2F)CC1=O (stereo unspecified)	9	1.86	Active	1.67	>10	–
O=C1CN(C(=O)c2cc(Cn3c(=O)[nH]c(=O)c4ccccc43)ccc2F)CCN1CC1CCCCC1	2.38	0.24	Active	9.39	>10	–

Second part, led by results:

IC50 [1] [nM]	IC50 [2] [nM]	PARP1-DNA trapping activity [5]	SMILES	IC50 [3] [nM]	PF50 [4]	also measured
1.4	0.29	Active	O=C(c1cc(Cn2c(=O)[nH]c(=O)c3ccccc32)ccc1F)N1CCN(C2CCCC2)C(=O)C1	13.2	>10	–
2.08	2.15	Active	O=C1CN(C(=O)c2cc(Cn3c(=O)[nH]c(=O)c4ccccc43)ccc2F)CCN1CCC1CC1	4.15	>10	–
2.46	0.1	Active	O=C1CN(C(=O)c2cc(Cn3c(=O)[nH]c(=O)c4ccccc43)ccc2F)CCN1CC1CCCC1	23.2	>10	–
9.85	3.41	–	O=C(c1cc(Cn2c(=O)[nH]c(=O)c3ccccc32)ccc1F)N1CC(=O)N2CCCCC2C1 (stereo unspecified)	32.6	>10	–
